Consider 22 molecules from US7067515B2, “Quinuclidines-substituted-multi-cyclic-heteroaryls for the treatment of disease” (Pfizer Inc., priority 2001, dated 2006).

Where a name gives a salt, the structure may show the parent alone. Read-outs that look alike come from different tables or passages of the source.

The target in the experiment is T1, α7 nAChR (Rattus norvegicus, UniProt Q05941).
T1 construct: brains (whole brain minus cerebellum) are dissected quickly, weighed and homogenized; from tissue; host or cells: rat brain (whole brain minus cerebellum) membrane homogenate
The experiment in a line: [3H]-MLA competition binding assay in rat brain membranes. As for the experimental part:
Materials and Methods for Identifying Binding Constants:
Membrane Preparation. Male Sprague-Dawley rats (300–350 g) are sacrificed by decapitation and the brains (whole brain minus cerebellum) are dissected quickly, weighed and homogenized in 9 volumes/g wet weight of ice-cold 0.32M sucrose using a rotating pestle on setting 50 (10 up and down strokes). The homogenate is centrifuged at 1,000×g for 10 minutes at 4° C. The supernatant is collected and centrifuged at 20,000×g for 20 minutes at 4° C. The resulting pellet is resuspended to a protein concentration of 1–8 mg/mL. Aliquots of 5 mL homogenate are frozen at −80° C. until needed for the assay. On the day of the assay, aliquots are thawed at room temperature and diluted with Kreb's—20 mM Hepes buffer pH 7.0 (at room temperature) containing 4.16 mM NaHCO3, 0.44 mM KH2PO4, 127 mM NaCl, 5.36 mM KCl, 1.26 mM CaCl2, and 0.98 mM MgCl2, so that 25–150 μg protein are added per test tube. Proteins are determined by the Bradford method (Bradford, M. M., Anal. Biochem., 72, 248–254, 1976) using bovine serum albumin as the standard.
Binding Assay. For saturation studies, 0.4 mL homogenate are added to test tubes containing buffer and various concentrations of radioligand, and are incubated in a final volume of 0.5 mL for 1 hour at 25° C. Nonspecific binding was determined in tissues incubated in parallel in the presence of 1 μM MLA, added before the radioligand. In competition studies, drugs are added in increasing concentrations to the test tubes before addition of approximately 3.0 to 4.0 nM [^3H]-MLA. The incubations are terminated by rapid vacuum filtration through Whatman GF/B glass filter paper mounted on a 48 well Brandel cell harvester. Filters are pre-soaked in 50 mM Tris HCl pH 7.0–0.05% polyethylenimine. The filters are rapidly washed two times with 5 mL aliquots of cold 0.9% saline and then counted for radioactivity by liquid scintillation spectrometry.
Data Analysis. In competition binding studies, the inhibition constant (Ki) was calculated from the concentration dependent inhibition of [^3H]-MLA binding obtained from non-linear regression fitting program according to the Cheng-Prusoff equation (Cheng, Y. C. and Prussoff, W. H., Biochem. Pharmacol., 22, p. 3099–3108, 1973). Hill coefficients were obtained using non-linear regression (GraphPad Prism sigmoidal dose-response with variable slope).

[1] abbreviates: competition with approximately 3.0 to 4.0 nM [3H]-MLA, rat brain (whole brain minus cerebellum) homogenate, 1 hour at 25° C, Cheng-Prusoff, read-out: Ki Value.

T1 sequence (Q05941 23-502): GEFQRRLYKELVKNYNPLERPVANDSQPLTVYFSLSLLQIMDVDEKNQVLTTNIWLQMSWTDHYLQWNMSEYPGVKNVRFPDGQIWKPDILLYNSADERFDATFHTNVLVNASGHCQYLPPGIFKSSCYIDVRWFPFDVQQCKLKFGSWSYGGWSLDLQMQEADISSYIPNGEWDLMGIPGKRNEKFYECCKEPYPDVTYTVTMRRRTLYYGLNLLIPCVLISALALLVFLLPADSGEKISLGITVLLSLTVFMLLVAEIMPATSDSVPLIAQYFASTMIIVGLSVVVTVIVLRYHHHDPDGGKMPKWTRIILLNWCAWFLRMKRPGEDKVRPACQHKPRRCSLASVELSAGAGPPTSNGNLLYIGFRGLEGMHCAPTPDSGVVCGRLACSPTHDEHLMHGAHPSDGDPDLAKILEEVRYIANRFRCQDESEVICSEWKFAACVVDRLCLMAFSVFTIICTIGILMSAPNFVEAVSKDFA

With `O=C(N[C@H]1CN2CCC1CC2)c1cc2c(cn1)OCC2` [Example 1, N-[(3R)-1-azabicyclo[2.2.2]oct-3-yl]-2,3-dihydrofuro[2,3-c]pyridine-5-carboxamide dihydrochloride], the inhibitory constant (Ki) (commonly the dissociation constant of the complex between target and ligand, obtained from inhibition or displacement) fell in the range of 50 to 60 nM.
As to `O=C(N[C@H]1CN2CCC1CC2)c1cc2cnccc2o1` [Example 2, N-[(3R)-1-azabicyclo[2.2.2]oct-3-yl]furo[3,2-c]pyridine-2-carboxamide], under setting [1], the inhibition constant (Ki) is 1300 nM.
On to `O=C(N[C@H]1CN2CCC1CC2)c1cc2ccoc2c(Cl)n1` [Example 3, N-[(3R)-1-azabicyclo[2.2.2]oct-3-yl]-7-chlorofuro[2,3-c]pyridine-5-carboxamide hydrochloride], for which, under setting [1], the inhibitory constant (Ki) worked out at 2250 nM.
Turning to `O=C(N[C@H]1CN2CCC1CC2)c1cc2ccoc2cn1` [Example 4, N-[(3R)-1-azabicyclo[2.2.2]oct-3-yl]furo[2,3-c]pyridine-5-carboxamide dihydrochloride], the Ki under setting [1] lay in the range of 9 to 10 nM.
For `Cc1cc2cc(C(=O)N[C@H]3CN4CCC3CC4)ncc2o1` [Example 6, N-[(3R)-1-azabicyclo[2.2.2]oct-3-yl]-2-methylfuro[2,3-c]pyridine-5-carboxamide dihydrochloride], the inhibition constant (Ki) was 119 nM.
The molecule `Cc1coc2cnc(C(=O)N[C@H]3CN4CCC3CC4)cc12` [Example 9, N-[(3R)-1-azabicyclo[2.2.2]oct-3-yl]-3-methylfuro[2,3-c]pyridine-5-carboxamide] yielded a Ki of 1 to 6 nM.
Consider `O=C(N[C@H]1CN2CCC1CC2)c1cc2cccnc2s1` [Example 13, N-((3R)-1-azabicyclo[2.2.2]oct-3-yl)thieno[2,3-b]pyridine-2-carboxamide dihydrochloride], for which the affinity, expressed as Ki, was 108 nM.
`O=C(N[C@H]1CN2CCC1CC2)c1cc2ccncc2s1` [Example 17, N-[(3R)-1-azabicyclo[2.2.2]oct-3-yl]thieno[2,3-c]pyridine-2-carboxamide dihydrochloride] returned an inhibition constant (Ki) of 65 nM.
Regarding `O=C(N[C@H]1CN2CCC1CC2)c1ccc2sccc2n1` [Example 19, N-[(3R)-1-azabicyclo[2.2.2]oct-3-yl]thieno[3,2-b]pyridine-5-carboxamide dihydrochloride], the affinity, expressed as Ki, was 274 nM.
The molecule `O=C(N[C@H]1CN2CCC1CC2)c1cnc2ccsc2c1` [Example 20, N-[(3R)-1-azabicyclo[2.2.2]oct-3-yl]thieno[3,2-b]pyridine-6-carboxamide dihydrochloride] displayed an inhibitory constant (Ki) of 952 nM.
Turning to `O=C(N[C@H]1CN2CCC1CC2)c1cc2cnccc2s1` [Example 21, N-[(3R)-1-azabicyclo[2.2.2]oct-3-yl]thieno[3,2-c]pyridine-2-carboxamide dihydrochloride], the inhibition constant (Ki) under setting [1] is 269 nM.
`O=C(N[C@H]1CN2CCC1CC2)c1cc2ccsc2cn1` [Example 22, N-[(3R)-1-azabicyclo[2.2.2]oct-3-yl]thieno[2,3-c]pyridine-5-carboxamide dihydrochloride] showed an inhibition constant (Ki) of 5 nM.
With `O=C(N[C@H]1CN2CCC1CC2)c1cc2sccc2cn1` [Example 23, N-[(3R)-1-azabicyclo[2.2.2]oct-3-yl]thieno[3,2-c]pyridine-6-carboxamide dihydrochloride], the inhibition constant (Ki) under setting [1] stood at 5 nM.
As to `O=C(N[C@H]1CN2CCC1CC2)c1cc2c(Cl)coc2cn1` [Example 28, N-[(3R)-1-Azabicyclo[2.2.2]oct-3-yl]-3-chlorofuro[2,3-c]pyridine-5-carboxamide dihydrochloride], the Ki came out at 3 nM.
`O=C(N[C@H]1CN2CCC1CC2)c1cc2c(Br)coc2cn1` [Example 29, N-[(3R)-1-Azabicyclo[2.2.2]oct-3-yl]-3-bromofuro[2,3-c]pyridine-5-carboxamide] had a Ki of 4 nM.
Same read-out and setting: the value for `O=C(N[C@H]1CN2CCC1CC2)c1cc2occc2cn1` [Example 30, N-[(3R)-1-Azabicyclo[2.2.2]oct-3-yl]furo[3,2-c]pyridine-6-carboxamide dihydrochloride] was 45 nM; that for `O=C(N[C@H]1CN2CCC1CC2)c1cc2c(Br)csc2cn1` [Example 31, N-[(3R)-1-azabicyclo[2.2.2]oct-3-yl]-3-bromothieno[2,3-c]pyridine-5-carboxamide] was 9 nM.
`C[C@H]1[C@H](NC(=O)c2cc3ccoc3cn2)C2CCN1CC2` [Example 33, N-[(2S,3R)-2-methyl-1-azabicyclo[2.2.2]oct-3-yl]furo[2,3-c]pyridine-5-carboxamide dihydrochloride] displayed an inhibition constant (Ki) of 15 nM.
With `Cc1coc2cnc(C(=O)N[C@@H]3C4CCN(CC4)[C@H]3C)cc12` [Example 34, 3-methyl-N-[(2S,3R)-2-methyl-1-azabicyclo[2.2.2]oct-3-yl]furo[2,3-c]pyridine-5-carboxamide dihydrochloride], the inhibition constant Ki was determined as 15 nM.
As for `C[C@H]1[C@H](NC(=O)c2cc3ccsc3cn2)C2CCN1CC2` [Example 35, N-[(2S,3R)-2-methyl-1-azabicyclo[2.2.2]oct-3-yl]thieno[2,3-c]pyridine-5-carboxamide dihydrochloride], the Ki came to 18 nM.
The same measure, in the same setting: the value for `C[C@H]1[C@H](NC(=O)c2cc3sccc3cn2)C2CCN1CC2` [Example 36, N-[(2S,3R)-2-methyl-1-azabicyclo[2.2.2]oct-3-yl]thieno[3,2-c]pyridine-6-carboxamide dihydrochloride] was 12 nM.
With `O=C(N[C@H]1CN2CCC1CC2)c1cc2cscc2cn1` [Example 40, N-[(3R)-1-azabicyclo[2.2.2]oct-3-yl]thieno[3,4-c]pyridine-6-carboxamide methanesulfonate], the affinity corresponds to a Ki of 25 nM.
